Where a name gives a salt, the structure may show the parent alone.
Test system: peri-menopausal women experiencing at least 40-50 hot flushes per week
Description: A clinical study is conducted with 12 peri-menopausal women experiencing at least 40-50 hot flushes per week.
The study is designed as a so called double blind, cross-over study. During the study the medication is orally administered once a day. The visual aspects of the medication used is always the same, i.e. these aspects offer no clues as to the nature of the medication. The volunteers are asked to record the number of hot flushes they experience in a dairy (at least 1 entry per day).
During an initial period of 56 days (days 1-56), all 12 participants receive the same medication, i.e. 20 mg Fluoxetine HCl. Subsequently, the twelve women are randomly divided into two groups, i.e. group A with six women and group B with six women.

For `CNCCC(Oc1ccc(C(F)(F)F)cc1)c1ccccc1` (stereo not drawn) [Fluoxetine HCl], the “number of hot flushes experienced per day” value (all 12 participants, 20 mg Fluoxetine HCl orally once a day, days 1-56) was “decreases substantially over time”, the “number of hot flushes” value (group A, 5mg Fluoxetine HCl + placebo orally once a day, days 169-281 (after the combination with vitamin B6)) was “increases again over time” and the “daily number of hot flushes experienced” value (group B, 5mg Fluoxetine HCl + placebo orally once a day, days 57-168 (after 20 mg Fluoxetine HCl)) was “increases over time”.

— patent EP1266659A1, “Pyridoxal in combination with serotonin re-uptake inhibitor for the treatment of hot flushes” (Pantarhei Bioscience B.V., priority 2001, dated 2002)
